Measurements published in the supplement of paper PMC4932681.

Columns and labels:
[1] = system: MCF-7 Tam1; assay: drug sensitivity score (DSS) (DSS (dimensionless)); higher = more sensitive; extreme values may be limits of the assay; details: 4-OH-tamoxifen in medium 1 µM; 72 h
In short: (§1)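 CellTiter-Glo viability was the readout, taken on a PHERAstar and normalised to vehicle-only and positive controls. It was measured after breast cancer cell lines and their resistant derivatives spent 72 h at 37 °C in 384-well plates containing library drugs at five concentrations spanning a 10 000-fold range, with 1 μM of the selecting drug in the medium of resistant lines. From logistic dose–response fits in the Breeze pipeline came drug sensitivity score, relative IC50 (curve midpoint) and top-dose inhibition.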

[2] = system: BT-474; assay: as above; details: 72 h
In short: as §1

[3] = system: T-47D Tam2; assay: as above; details: 4-OH-tamoxifen in medium 1 µM; 72 h
In short: as §1

[4] = system: ZR-75-1; assay: as above; details: 72 h
In short: as §1

[5] = system: T-47D Tam1; assay: as above; details: 4-OH-tamoxifen in medium 1 µM; 72 h
In short: as §1

[6] = system: MCF-7; assay: as above; details: 72 h
In short: as §1

[7] = system: BT-474 Tam1; assay: as above; details: 4-OH-tamoxifen in medium 1 µM; 72 h
In short: as §1

[8] = system: ZR-75-1 Tam2; assay: as above; details: 4-OH-tamoxifen in medium 1 µM; 72 h
In short: as §1

[9] = system: T-47D; assay: as above; details: 72 h
In short: as §1

[10] = system: BT-474 Tam2; assay: as above; details: 4-OH-tamoxifen in medium 1 µM; 72 h
In short: as §1

[11] = system: ZR-75-1 Tam1; assay: as above; details: 4-OH-tamoxifen in medium 1 µM; 72 h
In short: as §1

[12] = system: MCF-7 Tam1; assay: relative IC50 (midpoint of fitted logistic curve, plateau may be below 50% inhibition; CellTiter-Glo viability); higher = less potent; details: 4-OH-tamoxifen in medium 1 µM; 72 h
In short: as §1

[13] = system: BT-474; assay: as above; details: 72 h
In short: as §1

[14] = system: T-47D Tam2; assay: as above; details: 4-OH-tamoxifen in medium 1 µM; 72 h
In short: as §1

[15] = system: ZR-75-1; assay: as above; details: 72 h
In short: as §1

[16] = system: T-47D Tam1; assay: as above; details: 4-OH-tamoxifen in medium 1 µM; 72 h
In short: as §1

[17] = system: MCF-7; assay: as above; details: 72 h
In short: as §1

[18] = system: BT-474 Tam1; assay: as above; details: 4-OH-tamoxifen in medium 1 µM; 72 h
In short: as §1

[19] = system: ZR-75-1 Tam2; assay: as above; details: 4-OH-tamoxifen in medium 1 µM; 72 h
In short: as §1

[20] = system: T-47D; assay: as above; details: 72 h
In short: as §1

[21] = system: BT-474 Tam2; assay: as above; details: 4-OH-tamoxifen in medium 1 µM; 72 h
In short: as §1

[22] = system: ZR-75-1 Tam1; assay: as above; details: 4-OH-tamoxifen in medium 1 µM; 72 h
In short: as §1

Row | SMILES | drug sensitivity score [1] | drug sensitivity score ([2]; 4-OH-tamoxifen in medium 0 µM) | drug sensitivity score ([2]; 4-OH-tamoxifen in medium 1 µM) | drug sensitivity score [3] | drug sensitivity score ([4]; 4-OH-tamoxifen in medium 0 µM) | drug sensitivity score ([4]; 4-OH-tamoxifen in medium 1 µM) | drug sensitivity score [5] | drug sensitivity score ([6]; 4-OH-tamoxifen in medium 0 µM) | drug sensitivity score ([6]; 4-OH-tamoxifen in medium 1 µM) | drug sensitivity score [7] | drug sensitivity score [8] | drug sensitivity score ([9]; 4-OH-tamoxifen in medium 0 µM) | drug sensitivity score ([9]; 4-OH-tamoxifen in medium 1 µM) | drug sensitivity score [10] | drug sensitivity score [11] | relative IC50 [12] | relative IC50 ([13]; 4-OH-tamoxifen in medium 0 µM) | relative IC50 ([13]; 4-OH-tamoxifen in medium 1 µM) | relative IC50 [14] | relative IC50 ([15]; 4-OH-tamoxifen in medium 0 µM) | relative IC50 ([15]; 4-OH-tamoxifen in medium 1 µM) | relative IC50 [16] | relative IC50 ([17]; 4-OH-tamoxifen in medium 0 µM) | relative IC50 ([17]; 4-OH-tamoxifen in medium 1 µM) | relative IC50 [18] | relative IC50 [19] | relative IC50 ([20]; 4-OH-tamoxifen in medium 0 µM) | relative IC50 ([20]; 4-OH-tamoxifen in medium 1 µM) | relative IC50 [21] | relative IC50 [22]
1 | C[C@]12CC[C@H](O)CC1=CC[C@@H]1[C@@H]2CC[C@]2(C)C(c3cccnc3)=CC[C@@H]12 [Abiraterone (CB-7598)] | 0 | 0 | 0 | 0 | 0 | 0 | 0 | 0 | 0 | 0 | 0 | 0 | 0 | 0 | 0 | > 5 µM | > 5 µM | > 5 µM | > 5 µM | > 5 µM | > 5 µM | > 5 µM | > 5 µM | > 5 µM | > 5 µM | > 5 µM | > 5 µM | > 5 µM | > 5 µM | > 5 µM
2 | O=C(CCBr)N1CCN(C(=O)CCBr)CC1 [Pipobroman] | 0 | 0 | 0 | 0 | 0 | 0 | 0 | 0 | 0 | 0 | 0 | 0 | 0 | 0 | 0 | > 10 µM | > 10 µM | > 10 µM | > 10 µM | > 10 µM | > 10 µM | > 10 µM | > 10 µM | > 10 µM | > 10 µM | > 10 µM | > 10 µM | > 10 µM | > 10 µM | > 10 µM
3 | C[C@]1(c2nc3c(C(N)=O)cccc3[nH]2)CCCN1 [Veliparib  (ABT-888)] | 0 | 0 | 0 | 0 | 0 | 0 | 0 | 0 | 0 | 0 | 0 | 0 | 0 | 0 | 0 | > 10 µM | > 10 µM | > 10 µM | > 10 µM | > 10 µM | > 10 µM | > 10 µM | > 10 µM | > 10 µM | > 10 µM | > 10 µM | > 10 µM | > 10 µM | > 10 µM | > 10 µM
4 | COc1nc(N)nc2c1ncn2[C@@H]1O[C@H](CO)[C@@H](O)[C@@H]1O [Nelarabine] | 0 | 0 | 0 | 0 | 0.0337 | 0 | 0 | 0.277 | 0 | 0 | 0 | 0 | 0 | 0 | 0 | > 10 µM | > 10 µM | > 10 µM | > 10 µM | – | > 10 µM | > 10 µM | – | > 10 µM | > 10 µM | > 10 µM | > 10 µM | > 10 µM | > 10 µM | > 10 µM
5 | c1cc(CN2CCCNCCNCCCNCC2)ccc1CN1CCCNCCNCCCNCC1 [Plerixafor] | 0 | 0 | 0 | 0 | 0 | 0 | 0 | 0 | 0 | 0 | 0 | 0.403 | 0 | 0 | 0 | > 2.5 µM | > 2.5 µM | > 2.5 µM | > 2.5 µM | > 2.5 µM | > 2.5 µM | > 2.5 µM | > 2.5 µM | > 2.5 µM | > 2.5 µM | > 2.5 µM | > 2.5 µM | > 2.5 µM | > 2.5 µM | > 2.5 µM
6 | Cc1ccc(C(=O)N(CCCN)[C@@H](c2oc3cc(Cl)ccc3c(=O)c2Cc2ccccc2)C(C)C)cc1 | 0 | 0 | 0 | 0 | 0 | 0 | 0 | 0 | 0.514 | 0 | 0 | 0 | 0 | 0 | 0 | > 0.1 µM | > 0.1 µM | > 0.1 µM | > 0.1 µM | > 0.1 µM | > 0.1 µM | > 0.1 µM | > 0.1 µM | – | > 0.1 µM | > 0.1 µM | > 0.1 µM | > 0.1 µM | > 0.1 µM | > 0.1 µM
7 | O=C(O)CCCc1ccc(N(CCCl)CCCl)cc1 [Chlorambucil] | 0 | 0 | 0 | 0 | 0 | 0 | 0 | 0 | 0 | 0 | 0 | 0 | 0 | 0 | 0 | > 10 µM | > 10 µM | > 10 µM | > 10 µM | > 10 µM | > 10 µM | > 10 µM | > 10 µM | > 10 µM | > 10 µM | > 10 µM | > 10 µM | > 10 µM | > 10 µM | > 10 µM
